The source of these data is US20030228263A1, “Propagermanium for treating myeloma bone disease and other bone disorders” (SurroMed, Inc., priority 2002, published 2003).

The test system of assay [1] is mouse bone marrow cells stimulated with MIP-1α. As to the kind of experiment: Formation of mouse osteoclasts (TRAP staining) in bone marrow cultures. The format is cell-based. The conditions noted are these: 1 μg/ml propagermanium, two different concentrations of MIP-1α, with 10^−11 M vitamin D, FIG. 2.
Method: Bone marrow cells (10^6 cells/culture) from C57B1 mice were isolated and cultured for osteoclast-like multinucleated cell formation in the presence or absence of 1, 10, or 100 ng/ml MIP-1α, 10^−11 M 1,25-(OH)2D3 (vitamin D), and varying concentrations of anti-human MIP-1α antibody (20 or 100 ng/ml), anti-CCR1 receptor antibody (20 or 100 ng/ml), anti-CCR5 receptor antibody (20 or 100 ng/ml), and 1 μg/ml propagermanium. Twelve different culture compositions were each prepared in four wells of a 48-well plate. After approximately six or seven days, the cultures were stained for the enzyme tartrate-resistant acid phosphatase (TRAP), an enzyme secreted into the circulation by osteoclasts during bone resorption, using an acid phosphatase staining kit (Sigma). TRAP-positive multinucleated cells containing three or more nuclei (assumed to be osteoclasts) were counted with an inverted microscope. The readout can be either the total amount of TRAP (TRAP activity) or the number of osteoclasts.
Assay [2] relates to monocytes. As to conditions: cited from earlier work.
Assay [3] concerns human bone marrow cells stimulated with MIP-1α. As to the kind of experiment: Formation of human osteoclasts (23c6-positive multinucleated cells) in long-term marrow cultures. In kind it is cell-based. The conditions noted are these: for increase in the number of osteoclasts formed over untreated marrow: 200 pg/ml MIP-1α or 10^−8 M 1,25-(OH)2D3 alone, 23c6-positive cells, about three weeks, FIG. 3. The protocol:
Human long-term marrow cultures were performed as described in D. E. Hughes et al., “Estrogen promotes apoptosis of murine osteoclasts mediated by TGF-β,” Nature Medicine 2: 1132-1136, 1996, which is incorporated herein by reference. Briefly, human bone marrow nonadherent mononuclear cells from normal volunteers were cultured at 10^6 cells/ml in α-minimum essential medium and 20% horse serum with or without 10^−8 M 1,25-(OH)2D3 (vitamin D), 200 pg/ml MIP-1α, 20 ng/ml anti-human MIP-1α antibody, and varying concentrations of propagermanium. Five wells of each of ten different culture conditions were prepared in a 96-well plate. Each well contained 10^5 cells and the desired combination of reagents. Half of the culture medium was changed weekly. After approximately three weeks, the cultures were harvested and stained with the 23c6 monoclonal antibody, which identifies the osteoclast vitronectin receptor, and the 23c6-positive multinucleated cells counted. The 23c6 assay is more specific than the TRAP assay (used in Example 1 for mouse osteoclasts) for human osteoclasts.
Results are shown in FIG. 3, a plot of fold increase in osteoclasts over the number of osteoclasts formed in untreated marrow for each set of wells. Well conditions are indicated below the bars. Results are reported as the mean±S.E. for five replicate samples and were compared by Student's t test.

Assay [4] deals with macrophages. As to conditions: mouse, in vivo; cited from earlier work.

Turning to “3-oxygermylpropionic acid polymer [Propagermanium]”, in assay [1], the “reduction of the number of osteoclasts formed” value is recorded as “greater than a factor of four”. Moreover, in assay [2], the “chemotactic response of monocytes to the CC chemokine MCP-1” value is “inhibit” and the “direct interaction with the chemokine receptor CCR2” value was “did not appear to interact directly”. Further, in assay [3] (200 pg/ml MIP-1α, varying concentrations of propagermanium), the “number of osteoclasts formed in response to MIP-1α stimulation” value was “dose-dependent reduction”. Further, the “effect on osteoclast formation in response to vitamin D stimulation” value in assay [3] (10^−8 M 1,25-(OH)2D3, varying concentrations of propagermanium) was “no effect”. In assay [3] (highest dose of propagermanium, compared with 20 ng/ml anti-human MIP-1α antibody), the “inhibition of the effect of MIP-1α on osteoclast formation” value is “comparable to that of the anti-human MIP-1α antibody”. In addition, the “recruitment of macrophages into the liver” value in assay [4] is recorded as “suppress”.

With `C=C1/C(=C\C=C2/CCC[C@]3(C)[C@@H]([C@H](C)CCCC(C)(C)O)CC[C@@H]23)C[C@@H](O)C[C@@H]1O` [vitamin D, 1,25-(OH)2D3], in assay [3], the “increase in the number of osteoclasts formed over untreated marrow” value is listed as “greater than two-fold increase”.

B1: MIP-1α: CC chemokine macrophage inflammatory protein-1α, used as osteoclast stimulus (protein, UniProt P10147 24-92, looked up)
C-C motif chemokine 3: SLAADTPTACCFSYTSRQIPQNFIADYFETSSQCSKPGVIFLTKRSRQVCADPSEEWVQKYVSDLELSA
Consider B1, for which the “increase in the number of osteoclasts formed over untreated marrow” value in assay [3] was “greater than two-fold increase”.
